# Reference: patent US20260325685A1, “Radiopharmaceutical Compositions Targeting Carbonic Anhydrase IX and Uses Thereof” (RayzeBio, Inc., priority 2023, published 2026)
# Read-outs that look alike come from different tables or passages of the source.
# Legend:
# [1] = target: T1, human CA-XII (Homo sapiens, UniProt O43570); test: Surface Plasmon Resonance (SPR) binding kinetics to recombinant human CA-XII (Biacore 8K, single-cycle kinetics, 1:1 binding model)
# T1 construct: purchased Creative BioMart CA12-261H
# T1 sequence (O43570 25-354): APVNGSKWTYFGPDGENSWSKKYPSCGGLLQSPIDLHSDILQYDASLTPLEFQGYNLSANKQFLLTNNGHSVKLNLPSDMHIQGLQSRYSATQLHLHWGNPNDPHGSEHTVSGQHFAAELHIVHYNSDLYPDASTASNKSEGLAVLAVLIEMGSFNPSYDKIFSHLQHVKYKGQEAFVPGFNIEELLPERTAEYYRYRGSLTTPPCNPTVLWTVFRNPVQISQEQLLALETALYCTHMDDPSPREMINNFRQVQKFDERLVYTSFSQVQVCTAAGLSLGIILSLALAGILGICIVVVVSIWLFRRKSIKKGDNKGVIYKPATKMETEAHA
# Outline: (§1)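 Proteins were captured on streptavidin chips at 1200-1800 RU (CA-IX 180 s, CA-XII 75 s injection). Compound was run at 9 concentrations (100-0.39 nM) in PBS-P+ pH 7.4 with 1% DMSO, 120 s association, 1200 s dissociation, 25° C. Rate constants came from reference- and DMSO-corrected curves.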
# [2] = target: T2, human CA-IX (Homo sapiens, UniProt Q16790); test: Surface Plasmon Resonance (SPR) binding kinetics to recombinant human CA-IX (Biacore 8K, single-cycle kinetics, 1:1 binding model)
# T2 construct: purchased Acro CA9-H82E3
# Outline: as §1
# [3] = Chelated Metal: Lu-175, 25° C., pH 7.4, read-out: CAXII KD
# [4] = Chelated Metal: Lu-175; SPR, 25° C., pH 7.4; read-out: CAIX KD
Compound,"Kd [1, 3] [nM]","Kd [2, 4] [nM]","Kd ([1]; read-out: CAXII KD, Chelated Metal: Lu-175, 25° C., pH 7.4) [nM]","Kd ([2]; read-out: CAIX KD; Chelated Metal: Lu-175; SPR, 25° C., pH 7.4) [nM]"
NS(=O)(=O)c1nnc(NC(=O)C23CC(c4cn(CCNC(=O)[C@@H]5CN(C(=O)CN6CCN(CC(=O)O)CCN(CC(=O)O)CCN(CC(=O)O)CC6)CCN5C(=O)C[C@H](Nc5ncc(C(=O)NCCc6ccc(C(F)(F)F)cc6)cn5)C(=O)O)nn4)(C2)C3)s1.[Lu+3] [Compound 111.7],> 10,2.5 to 10,–,–
NS(=O)(=O)c1nnc(NC(=O)C23CC(c4cn(CCNC(=O)[C@@H]5CN(C(=O)CN6CCN(CC(=O)O)CCN(CC(=O)O)CCN(CC(=O)O)CC6)CCN5C(=O)C[C@H](Nc5ncc(C(=O)NCCc6ccc(F)c(F)c6)cn5)C(=O)O)nn4)(C2)C3)s1.[Lu+3] [Compound 111.8],> 10,2.5 to 10,–,–
NS(=O)(=O)c1nnc(NC(=O)C23CC(c4cn(CCNC(=O)[C@@H]5CN(C(=O)CN6CCN(CC(=O)O)CCN(CC(=O)O)CCN(CC(=O)O)CC6)CCN5C(=O)C[C@H](Nc5ncc(C(=O)NCC6CC7(CCC7)C6)cn5)C(=O)O)nn4)(C2)C3)s1.[Lu+3] [Compound 111.9],> 10,1 to 2.5,–,–
NS(=O)(=O)c1nnc(NC(=O)C23CC(c4cn(CCNC(=O)[C@@H]5CN(C(=O)CN6CCN(CC(=O)O)CCN(CC(=O)O)CCN(CC(=O)O)CC6)CCN5C(=O)C[C@H](Nc5ncc(C(=O)NCc6n[nH]c7ccccc67)cn5)C(=O)O)nn4)(C2)C3)s1.[Lu+3] [Compound 111.10],> 10,2.5 to 10,–,–
NS(=O)(=O)c1nnc(NC(=O)C23CC(c4cn(CCNC(=O)[C@@H]5CN(C(=O)CN6CCN(CC(=O)O)CCN(CC(=O)O)CCN(CC(=O)O)CC6)CCN5C(=O)C[C@H](Nc5ncc(C(=O)NCCc6ccc(C7CC7)cc6)cn5)C(=O)O)nn4)(C2)C3)s1.[Lu+3] [Compound 111.11],> 10,1 to 2.5,–,–
NCCNC(=O)c1cnc(N[C@@H](CC(=O)N2CCN(C(=O)CN3CCN(CC(=O)O)CCN(CC(=O)O)CCN(CC(=O)O)CC3)C[C@H]2C(=O)NCCn2cc(C34CC(C(=O)Nc5nnc(S(N)(=O)=O)s5)(C3)C4)nn2)C(=O)O)nc1.[Lu+3] [Compound 111.12],> 10,2.5 to 10,–,–
NS(=O)(=O)c1nnc(NC(=O)C23CC(c4cn(CCNC(=O)[C@@H]5CN(C(=O)CN6CCN(CC(=O)O)CCN(CC(=O)O)CCN(CC(=O)O)CC6)CCN5C(=O)C[C@H](Nc5ncc(C(=O)NCc6ccc(S(F)(F)(F)(F)F)cc6)cn5)C(=O)O)nn4)(C2)C3)s1.[Lu+3] [Compound 111],–,–,> 10,2.5 to 10
NS(=O)(=O)c1nnc(NC(=O)C23CC(c4cn(CCNC(=O)[C@@H]5CN(C(=O)CN6CCN(CC(=O)O)CCN(CC(=O)O)CCN(CC(=O)O)CC6)CCN5C(=O)CNC(=O)C5(C(=O)O)CCN(C(=O)Cc6ccc7cn[nH]c7c6)CC5)nn4)(C2)C3)s1.[Lu+3] [Compound 112.1],> 10,2.5 to 10,–,–
NS(=O)(=O)c1nnc(NC(=O)C23CCC(c4cn(CCNC(=O)[C@@H]5CN(C(=O)CN6CCN(CC(=O)O)CCN(CC(=O)O)CCN(CC(=O)O)CC6)CCN5C(=O)CNC(=O)C5(C(=O)O)CCN(C(=O)CCCc6ccc(I)cc6)CC5)nn4)(CC2)CC3)s1.[Lu+3] [Compound 112.2],2.5 to 10,< 1,–,–
NS(=O)(=O)c1nnc(NC(=O)C23CC(c4cn(CCNC(=O)[C@@H]5CN(C(=O)CN6CCN(CC(=O)O)CCN(CC(=O)O)CCN(CC(=O)O)CC6)CCN5C(=O)CNC(=O)C5(C(=O)O)CCN(C(=O)CCCCc6ccc(O)cc6)CC5)nn4)(C2)C3)s1.[Lu+3] [Compound 112.3],> 10,1 to 2.5,–,–
NS(=O)(=O)c1nnc(NC(=O)C23CC(c4cn(CCNC(=O)[C@@H]5CN(C(=O)CN6CCN(CC(=O)O)CCN(CC(=O)O)CCN(CC(=O)O)CC6)CCN5C(=O)CNC(=O)C5(C(=O)O)CCN(C(=O)CCc6n[nH]c7ccccc67)CC5)nn4)(C2)C3)s1.[Lu+3] [Compound 112.4],> 10,2.5 to 10,–,–
NS(=O)(=O)c1nnc(NC(=O)C23CC(c4cn(CCNC(=O)[C@@H]5CN(C(=O)CN6CCN(CC(=O)O)CCN(CC(=O)O)CCN(CC(=O)O)CC6)CCN5C(=O)CNC(=O)C5(C(=O)O)CCN(C(=O)CCCc6n[nH]c7ccccc67)CC5)nn4)(C2)C3)s1.[Lu+3] [Compound 112.5],> 10,2.5 to 10,–,–
NS(=O)(=O)c1nnc(NC(=O)C23CC(c4cn(CCNC(=O)[C@@H]5CN(C(=O)CN6CCN(CC(=O)O)CCN(CC(=O)O)CCN(CC(=O)O)CC6)CCN5C(=O)CNC(=O)C5(C(=O)O)CCN(C(=O)Cc6n[nH]c7ccccc67)CC5)nn4)(C2)C3)s1.[Lu+3] [Compound 112.6],> 10,1 to 2.5,–,–
NS(=O)(=O)c1nnc(NC(=O)C23CC(c4cn(CCNC(=O)[C@@H]5CN(C(=O)CN6CCN(CC(=O)O)CCN(CC(=O)O)CCN(CC(=O)O)CC6)CCN5C(=O)CNC(=O)C5(C(=O)O)CCN(C(=O)CCC6CCCCCC6)CC5)nn4)(C2)C3)s1.[Lu+3] [Compound 112.7],> 10,< 1,–,–
NS(=O)(=O)c1nnc(NC(=O)C23CC(c4cn(CCNC(=O)[C@@H]5CN(C(=O)CN6CCN(CC(=O)O)CCN(CC(=O)O)CCN(CC(=O)O)CC6)CCN5C(=O)CNC(=O)C5(C(=O)O)CCN(C(=O)CC6CC7(CCC7)C6)CC5)nn4)(C2)C3)s1.[Lu+3] [Compound 112.8],2.5 to 10,< 1,–,–
NS(=O)(=O)c1nnc(NC(=O)C23CC(c4cn(CCNC(=O)[C@@H]5CN(C(=O)CN6CCN(CC(=O)O)CCN(CC(=O)O)CCN(CC(=O)O)CC6)CCN5C(=O)CNC(=O)C5(C(=O)O)CCN(C(=O)c6ccc(C7CC7)cc6)CC5)nn4)(C2)C3)s1.[Lu+3] [Compound 112.9],> 10,< 1,–,–
NS(=O)(=O)c1nnc(NC(=O)C23CC(c4cn(CCNC(=O)[C@@H]5CN(C(=O)CN6CCN(CC(=O)O)CCN(CC(=O)O)CCN(CC(=O)O)CC6)CCN5C(=O)CNC(=O)C5(C(=O)O)CCN(C(=O)c6n[nH]c7ccccc67)CC5)nn4)(C2)C3)s1.[Lu+3] [Compound 112.10],> 10,< 1,–,–
NS(=O)(=O)c1nnc(NC(=O)C23CC(c4cn(CCNC(=O)[C@@H]5CN(C(=O)CN6CCN(CC(=O)O)CCN(CC(=O)O)CCN(CC(=O)O)CC6)CCN5C(=O)CNC(=O)C5(C(=O)O)CCN(C(=O)c6cc(C(F)(F)F)n[nH]6)CC5)nn4)(C2)C3)s1.[Lu+3] [Compound 112.11],> 10,2.5 to 10,–,–
NS(=O)(=O)c1nnc(NC(=O)C23CC(c4cn(CCNC(=O)[C@@H]5CN(C(=O)CN6CCN(CC(=O)O)CCN(CC(=O)O)CCN(CC(=O)O)CC6)CCN5C(=O)CNC(=O)C5(C(=O)O)CCN(C(=O)Cc6ccc(C7CC7)cc6)CC5)nn4)(C2)C3)s1.[Lu+3] [Compound 112.12],> 10,1 to 2.5,–,–
Cc1c(C(F)(F)F)n[nH]c1C(=O)N1CCC(C(=O)O)(C(=O)NCC(=O)N2CCN(C(=O)CN3CCN(CC(=O)O)CCN(CC(=O)O)CCN(CC(=O)O)CC3)C[C@H]2C(=O)NCCn2cc(C34CC(C(=O)Nc5nnc(S(N)(=O)=O)s5)(C3)C4)nn2)CC1.[Lu+3] [Compound 112.13],> 10,1 to 2.5,–,–
NS(=O)(=O)c1nnc(NC(=O)C23CC(c4cn(CCNC(=O)[C@@H]5CN(C(=O)CN6CCN(CC(=O)O)CCN(CC(=O)O)CCN(CC(=O)O)CC6)CCN5C(=O)CNC(=O)C5(C(=O)O)CCN(C(=O)Cc6c[nH]nc6C(F)(F)F)CC5)nn4)(C2)C3)s1.[Lu+3] [Compound 112.14],> 10,2.5 to 10,–,–
NS(=O)(=O)c1nnc(NC(=O)C23CC(c4cn(CCNC(=O)[C@@H]5CN(C(=O)CN6CCN(CC(=O)O)CCN(CC(=O)O)CCN(CC(=O)O)CC6)CCN5C(=O)CNC(=O)C5(C(=O)O)CCN(C(=O)Cc6n[nH]c7ccc(F)cc67)CC5)nn4)(C2)C3)s1.[Lu+3] [Compound 112.15],> 10,1 to 2.5,–,–
NS(=O)(=O)c1nnc(NC(=O)C23CC(c4cn(CCNC(=O)[C@@H]5CN(C(=O)CN6CCN(CC(=O)O)CCN(CC(=O)O)CCN(CC(=O)O)CC6)CCN5C(=O)CNC(=O)C5(C(=O)O)CCN(C(=O)Cc6ccc7[nH]ncc7c6)CC5)nn4)(C2)C3)s1.[Lu+3] [Compound 112.16],> 10,2.5 to 10,–,–
NS(=O)(=O)c1nnc(NC(=O)C23CC(c4cn(C[C@H]5CN(C(=O)CN6CCN(CC(=O)O)CCN(CC(=O)O)CCN(CC(=O)O)CC6)CCN5C(=O)CNC(=O)C5(C(=O)O)CCN(C(=O)Cc6n[nH]c7ccccc67)CC5)nn4)(C2)C3)s1.[Lu+3] [Compound 112.17],1 to 2.5,< 1,–,–
CC(CCCC(=O)N1CCC(C(=O)O)(C(=O)NCC(=O)N2CCN(C(=O)CN3CCN(CC(=O)O)CCN(CC(=O)O)CCN(CC(=O)O)CC3)C[C@H]2C(=O)NCCn2cc(C34CC(C(=O)Nc5nnc(S(N)(=O)=O)s5)(C3)C4)nn2)CC1)(c1ccc(O)cc1)c1ccc(O)cc1.[Lu+3] [Compound 112.18],> 10,1 to 2.5,–,–
NS(=O)(=O)c1nnc(NC(=O)C23CC(c4cn(CCNC(=O)[C@@H]5CN(C(=O)CN6CCN(CC(=O)O)CCN(CC(=O)O)CCN(CC(=O)O)CC6)CCN5C(=O)CNC(=O)C5(C(=O)O)CCN(C(=O)CCCCc6ccc(I)cc6)CC5)nn4)(C2)C3)s1.[Lu+3] [Compound 112.19],> 10,< 1,–,–
